The results in this text go back to publication PMC9062151, “GVS-12 attenuates non-alcoholic steatohepatitis by suppressing inflammatory responses via PPARγ/STAT3 signaling pathways” (RSC Advances, 2019).

Each structure is given as a SMILES string.

Broadly, the Ki is a dissociation constant, usually derived from enzyme kinetics or from competition with a known ligand. Lower therefore signals tighter binding.

This experiment has as its target T1, PPARγ (peroxisome proliferator-activated receptor γ) (Homo sapiens, UniProt P37231).
T1 construct: gene PPARG; PPARγ-LBD
T1 sequence (P37231 235-505 limits assumed): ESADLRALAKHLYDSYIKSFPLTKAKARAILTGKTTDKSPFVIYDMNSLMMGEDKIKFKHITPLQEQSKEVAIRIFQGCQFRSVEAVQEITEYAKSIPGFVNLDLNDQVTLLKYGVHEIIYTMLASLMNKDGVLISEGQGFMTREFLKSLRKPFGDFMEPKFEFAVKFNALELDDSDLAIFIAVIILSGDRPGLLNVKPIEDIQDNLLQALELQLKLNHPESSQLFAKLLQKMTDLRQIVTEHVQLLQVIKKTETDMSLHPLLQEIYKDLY
In words: LanthaScreen TR-FRET PPARγ competitive binding assay; supported by PPARγ reporter gene activation in HepG2 cells. (Time-resolved FRET reads energy transfer from a long-lived donor to a nearby acceptor.)

For the compound `O=C(NCc1ccco1)c1ccc(OCc2ccc(C(F)(F)F)cc2)cc1` [GVS-12], the Ki came out at 320 nM.
